# Results taken from patent publication US20100009970A1, “COMPOSITIONS AND METHODS FOR TREATMENT OF VIRAL DISEASES” (Combinatorx (Singapore) Pte. Ltd., priority 2008, published 2010).
# Counter-ions that a name gives are not always drawn. Like-named read-outs stand apart in the source and are kept apart here.
# Key:
# in vitro = details: human
# [1] = system: Huh7 cells expressing a subgenomic RNA replicon of Con1 (genotype 1b) sequence origin; test: microbe, parasite or virus in culture; details: Hepatitis C virus; for Emax: Huh-7, read-out: Max Effect@CC30 (inhibition)
# [2] = Huh-7, read-out: IC50 (uM) [SG]
Structure (SMILES),IC50 ([1]; Huh-7) [µM],also measured
"CN(C)[C@H]1CC[C@@H](c2ccc(Cl)c(Cl)c2)c2ccc(C(=O)NC3CC3)cc21 [(5S,8S)—N-cyclopropyl-5-(3,4-dichlorophenyl)-8-(dimethylamino)-5,6,7,8-tetrahydronaphthalene-2-carboxamide]",,"CC50 (in vitro; CC50 (uM) [SG]): 25.4 µM; IC50 [1, 2]: 7.3 µM"
"CSc1ccc(Oc2ccc(S(N)(=O)=O)cc2CN(C)C[C@H](C)O)cc1C [Compound 71, (S)-3-(((2-hydroxypropyl)(methyl)amino)methyl)-4-(3-methyl-4-(methylthio)phenoxy)benzenesulfonamide]",,"CC50 (in vitro; CC50 (uM) [SG]): > 50 µM; IC90 ([1]; Huh-7): 13.4 µM; IC50 [1, 2]: 4.96 µM"
"CC(C)C1CC[C@@H](c2ccc(Cl)c(Cl)c2)c2ccc(C(N)=O)cc21 (stereo partly drawn) [Isopropyl Sertraline A-Ring Carboxamide, (S)-5-(3,4-dichlorophenyl)-8-isopropyl-5,6,7,8-tetrahydronaphthalene-2-carboxamide]",,"CC50 (in vitro; CC50 (uM) [SG]): > 50 µM; IC50 [1, 2]: 38.9 µM"
"CSc1ccc(N(C)c2ccc(Br)cc2CN(C)C)cc1C [Compound 98, 4-Bromo-2-((dimethylamino)methyl)-N-methyl-N-(3-methyl-4-(methylthio)phenyl)aniline]",,"CC50 (in vitro; CC50 (uM) [SG]): > 50 µM; IC90 ([1]; Huh-7): 26.8 µM; IC50 [1, 2]: 25 µM"
"CSc1ccc(Oc2ccc(S(N)(=O)=O)cc2CNCCN(C)C)cc1C [Compound 96, 3-((2-(dimethylamino)ethylamino)methyl)-4-(3-methyl-4-(methylthio)phenoxy)benzenesulfonamide]",,"CC50 (in vitro; CC50 (uM) [SG]): 19.4 µM; IC90 ([1]; Huh-7): 5.89 µM; IC50 [1, 2]: 2.77 µM"
"CNC(=O)c1cc(S(N)(=O)=O)ccc1Oc1ccc(SC)c(C)c1 [Compound 45, N-methyl-2-(3-methyl-4-(methylthio)phenoxy)-5-sulfamoylbenzamide]",,CC50 (in vitro; CC50 (uM)): > 50 µM; Emax [1]: 10.3%
"CCCCS(=O)(=O)Nc1ccc2c(c1)[C@@H](NC)CC[C@H]2c1ccc(Cl)c(Cl)c1 [N-((5S,8S)-5-(3,4-dichlorophenyl)-8-(methylamino)-5,6,7,8-tetrahydronaphthalen-2-yl)butane-1-sulfonamide]",,"CC50 (in vitro; CC50 (uM) [SG]): 3.63 µM; IC50 [1, 2]: 6.07 µM"
"CSc1ccc(Oc2ccc(S(N)(=O)=O)cc2CN(C)CCO)cc1C [Compound 2, 3-(((2-hydroxyethyl)(methyl)amino)methyl)-4-(3-methyl-4-(methylthio)phenoxy)benzenesulfonamide]",,"CC50 (in vitro; CC50 (uM) [SG]): > 50 µM; IC90 ([1]; Huh-7): 20.1 µM; IC50 [1, 2]: 5.58 µM"
"CNc1cc(S(N)(=O)=O)ccc1Oc1ccc(SC)c(C)c1 [Compound 62, 4-(3-methyl-4-(methylthio)phenoxy)-3-(methylamino)benzenesulfonamide]",,CC50 (in vitro; CC50 (uM) [SG]): > 50 µM
"CCN(CC)CCO[C@H]1CC[C@@]2(C)C(=CC[C@@H]3[C@@H]2CC[C@]2(C)C(=O)CC[C@@H]32)C1 [Example U18666A, reference compound]",0.02,
"C[C@@]1(O)[C@H](O)[C@@H](CO)O[C@H]1n1ccc(N)nc1=O [2′-C-Methylcytidine, 2′-C-methylcytidine, reference compound]",1.63,
"Oc1ccc(O)cc1 [Hydroquinone, reference compound]",14,
"CC[C@]1(O)C[C@H]2CN(CCc3c([nH]c4ccccc34)[C@@](C(=O)OC)(c3cc4c(cc3OC)N(C=O)[C@H]3[C@@](O)(C(=O)OC)[C@H](OC(C)=O)[C@]5(CC)C=CCN6CC[C@]43[C@@H]65)C2)C1 [Vincristine (e.g., sulfate), Vincristine, reference compound]",0.02,
"CCC(C)(C)c1ccc(CC(C)CN2C[C@@H](C)O[C@@H](C)C2)cc1 (stereo partly drawn) [Amorolfine (e.g., hydrochloride), amorolfine, reference compound]",1.62,
"CSc1ccc(Oc2ccccc2CN(C)C)cc1 [Compound 35, N,N-dimethyl(2-(4-(methylthio)phenoxy)phenyl)methanamine]",,Emax [1]: 48%
"CC[C@@]1(O)C(=O)OCc2c1cc1n(c2=O)Cc2cc3c(CN(C)C)c(O)ccc3nc2-1 [Topotecan (e.g., hydrochloride), topotecan, reference compound]",0.095,
"CC(C)c1nc(CN(C)C(=O)N[C@H](C(=O)N[C@@H](Cc2ccccc2)C[C@H](O)[C@H](Cc2ccccc2)NC(=O)OCc2cncs2)C(C)C)cs1 [Ritonavir, reference compound]",14.9,
"CCC(C)(C)C(=O)O[C@H]1C[C@@H](C)C=C2C=C[C@H](C)[C@H](CC[C@@H](O)C[C@@H](O)CC(=O)O)[C@H]21 [Simvastatin hydroxy acid, ammonium salt, simvastatin hydroxy acid, ammonium salt, reference compound]",13.4,
"Nc1ccn([C@@H]2O[C@H](CO)[C@@H](O)[C@@H]2O)c(=O)n1 [Cytarabine, reference compound]",0.117,
"C[C@@H]1CC[C@H]2[C@@H](C)C(=O)O[C@@H]3O[C@]4(C)CC[C@@H]1[C@]32OO4 [Artemisinin, artemisinin, reference compound]",4.45,
"Nc1ccn([C@@H]2O[C@H](CO)[C@@H](O)C2(F)F)c(=O)n1 [Gemcitabine (e.g., hydrochloride), Gemcitabine, reference compound]",0.06,
"CC(C)(C)NC(=O)NC(C(=O)N1C[C@H]2[C@@H]([C@H]1C(=O)NC(CC1CCC1)C(=O)C(N)=O)C2(C)C)C(C)(C)C (stereo partly drawn) [Boceprevir (SCH 503034), Boceprevir, reference compound]",0.259,
"c1ccc(-c2ccc(C(c3ccccc3)n3ccnc3)cc2)cc1 (stereo not drawn) [Bifonazole, reference compound]",6.15,
"COC(=O)Nc1nc2cc(C(=O)c3ccc(F)cc3)ccc2[nH]1 [Flubendazole, reference compound]",0.173,

Structure (SMILES),IC50 ([1]; Huh-7) [µM],also measured
"COc1ccc2c(c1OC)C(=O)O[C@@H]2[C@H]1c2c(cc3c(c2OC)OCO3)CCN1C [Noscapine, reference compound]",15.8,
"Nc1ccc(/N=N/c2ccccc2)c(N)n1 [Phenazopyridine (e.g., hydrochloride), Phenazopyridine, reference compound]",7.85,
"CN(C)CCCC1(c2ccc(F)cc2)OCc2cc(C#N)ccc21 (stereo not drawn) [Citalopram (e.g., hydrobromide), Citalopram, reference compound]",27.3,
"CCOc1cc(N)c(Cl)cc1C(=O)NCC1CN(Cc2ccc(F)cc2)CCO1 (stereo not drawn) [Mosapride (e.g., citrate), mosapride, reference compound]",10.9,
"CCCC1O[C@@H]2C[C@H]3[C@@H]4CCC5=CC(=O)C=C[C@]5(C)[C@H]4[C@@H](O)C[C@]3(C)[C@]2(C(=O)CO)O1 (stereo partly drawn) [Budesonide, budesonide, reference compound]",15.7,
"CCN(CC)C(=S)SSC(=S)N(CC)CC [Disulfiram, reference compound]",5.5,
"O=C(c1ccc(OCCN2CCCCC2)cc1)c1c(-c2ccc(O)cc2)sc2cc(O)ccc12 [Raloxifene (e.g., hydrochloride), Raloxifene, reference compound]",3.74,
"C[C@@]1(CO)[C@H](O)CC[C@@]2(C)[C@H]1CC[C@H]1C[C@@H]3C[C@@]12CC[C@]3(O)CO [Aphidicolin, aphidicolin, reference compound]",1.71,
"CC(=O)Oc1ccccc1C(=O)Nc1ncc([N+](=O)[O-])s1 [Nitazoxanide, nitazoxanide, reference compound]",14,
"O=c1[nH]c(=O)n([C@H]2C[C@H](O)[C@@H](CO)O2)cc1F [Floxuridine, floxuridine, reference compound]",0.0045,
"CN1C[C@H](C(=O)N[C@]2(C)O[C@@]3(O)[C@@H]4CCCN4C(=O)[C@H](Cc4ccccc4)N3C2=O)C[C@@H]2c3cccc4[nH]cc(c34)C[C@H]21 [Dihydroergotamine (e.g., mesylate), dihydroergotamine, reference compound]",22.8,
"CC(C)(C)C(=O)OCOP(=O)(COCCn1cnc2c(N)ncnc21)OCOC(=O)C(C)(C)C [Adefovir (e.g., dipivoxil), adefovir dipivoxil, reference compound]",0.319,
"CCCOc1ccc2nc(NC(=O)OC)[nH]c2c1 [Oxibendazole, reference compound]",0.3,
CC1=C(/C=C/C(C)=C/C=C/C(C)=C/C=C/C=C(C)/C=C/C=C(C)/C=C/C2=C(C)CCCC2(C)C)C(C)(C)CCC1 [Beta-Carotene],18.5,
"CN(C)C(=S)SSC(=S)N(C)C [Thiram, thiram]",3.64,
"Oc1cc(O)cc(/C=C/c2ccc(O)c(O)c2)c1 [Piceatannol, reference compound]",5.47,
"N[C@@H](Cc1cc(I)c(Oc2cc(I)c(O)c(I)c2)c(I)c1)C(=O)O [Levothyroxine (e.g., sodium), Levothyroxine, reference compound]",3.79,
"COC(=O)Nc1nc2ccc(Sc3ccccc3)cc2[nH]1 [Fenbendazole, reference compound]",0.419,
"C[C@]12Cc3c[nH]nc3C[C@@H]1CC[C@@H]1[C@@H]2CC[C@@]2(C)[C@H]1CC[C@]2(C)O [Stanozolol, stanozolol, reference compound]",15.2,
"O=C(CCCN1CCC(O)(c2cccc(C(F)(F)F)c2)CC1)c1ccc(F)cc1 [Trifluperidol, reference compound]",7.8,
"CC(C)[C@H](N)C(=O)O[C@@H]1[C@@H](CO)O[C@@H](n2ccc(N)nc2=O)[C@]1(C)O [Valopicitabine (NM-283), Valopicitabine, reference compound]",11.2,
CC(C)C(C(=O)OC(C#N)c1cccc(Oc2ccccc2)c1)c1ccc(Cl)cc1 (stereo not drawn) [Fenvalerate],18.9,
"C[C@]12CC[C@H](O)CC1=CC[C@@H]1[C@@H]2CC[C@]2(C)C(=O)CC[C@@H]12 [Dehydroepiandrosterone, reference compound]",11.2,
"CCOC(=O)c1c(CSc2ccccc2)n(C)c2cc(Br)c(O)c(CN(C)C)c12 [Arbidol, arbidol, reference compound]",12.2,
